System: DP-independent nicotinic acid induced vasodilation
Assay: nicotinic acid induced vasodilation in mice genetically devoid of the DP receptor
Format: in vivo, mouse
Conditions: mice genetically devoid of the DP receptor (DP1), administration or pre-administration
Procedure: Thus, some portion of nicotinic acid induced vasodilation may not be dependent on the DP receptor. This DP-independent vasodilation can be inhibited by the administration or pre-administration of aspirin, a COX-1/COX-II inhibitor, to the mice. Human doses range from about 20-25 mg to as high as about 650 mg, administered about one hour to about 30 minutes before the administration of nicotinic acid, up to simultaneous administration, and repeated as necessary up to about every four hours. Thus a combination of DP receptor antagonist and aspirin is particularly effective to suppress nicotinic acid induced flushing in humans, attenuating some or all of the flushing that is not suppressed by the […] or by aspirin alone.

## CC(=O)Oc1ccccc1C(=O)O [aspirin]
  inhibition of DP-independent nicotinic acid induced vasodilation: inhibited
